# Test results reported in ChEMBL document CHEMBL5291721, “A preclinical secondary pharmacology resource illuminates target-adverse drug reaction associations of marketed drugs” (Nat Commun, 2023).
# Columns and labels:
# [1] = target: T1, Muscarinic acetylcholine receptor M1 (Homo sapiens, UniProt P11229); assay type: functional
# T1 sequence (P11229 whole entry): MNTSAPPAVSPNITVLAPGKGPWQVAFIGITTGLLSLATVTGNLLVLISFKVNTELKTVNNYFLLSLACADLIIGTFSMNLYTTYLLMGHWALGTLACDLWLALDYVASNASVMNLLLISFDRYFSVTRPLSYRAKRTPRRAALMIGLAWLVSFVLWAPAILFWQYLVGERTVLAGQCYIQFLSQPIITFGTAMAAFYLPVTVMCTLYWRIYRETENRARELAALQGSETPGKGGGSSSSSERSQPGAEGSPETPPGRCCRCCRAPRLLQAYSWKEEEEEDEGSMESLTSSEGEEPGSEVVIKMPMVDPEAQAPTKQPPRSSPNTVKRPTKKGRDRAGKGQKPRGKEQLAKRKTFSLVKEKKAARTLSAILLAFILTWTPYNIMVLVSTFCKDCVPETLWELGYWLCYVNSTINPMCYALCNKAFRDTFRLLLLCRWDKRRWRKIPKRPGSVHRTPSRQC
# Estrogen receptor = target: T2, Estrogen receptor (Homo sapiens, UniProt P03372)
# T2 sequence (P03372 whole entry): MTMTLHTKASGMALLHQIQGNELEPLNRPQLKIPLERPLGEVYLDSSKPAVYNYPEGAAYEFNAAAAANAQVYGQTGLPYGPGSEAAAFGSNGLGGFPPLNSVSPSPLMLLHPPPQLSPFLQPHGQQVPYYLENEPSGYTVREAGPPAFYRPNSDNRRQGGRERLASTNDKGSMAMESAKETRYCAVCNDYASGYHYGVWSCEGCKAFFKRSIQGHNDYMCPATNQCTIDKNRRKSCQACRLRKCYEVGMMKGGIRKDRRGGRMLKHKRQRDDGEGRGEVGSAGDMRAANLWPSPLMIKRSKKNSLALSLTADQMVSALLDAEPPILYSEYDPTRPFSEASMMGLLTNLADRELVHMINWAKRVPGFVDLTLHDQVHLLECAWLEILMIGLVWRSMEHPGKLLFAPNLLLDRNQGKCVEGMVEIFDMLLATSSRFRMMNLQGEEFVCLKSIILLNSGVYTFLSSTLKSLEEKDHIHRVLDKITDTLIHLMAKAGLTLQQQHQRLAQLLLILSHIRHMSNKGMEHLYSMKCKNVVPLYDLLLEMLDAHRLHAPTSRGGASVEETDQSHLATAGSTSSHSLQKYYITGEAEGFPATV
# Histamine H2 receptor = Histamine H2 receptor (Homo sapiens, UniProt P25021); assay type: functional, cell-based
# Histamine H2 receptor, sequence (P25021 whole entry): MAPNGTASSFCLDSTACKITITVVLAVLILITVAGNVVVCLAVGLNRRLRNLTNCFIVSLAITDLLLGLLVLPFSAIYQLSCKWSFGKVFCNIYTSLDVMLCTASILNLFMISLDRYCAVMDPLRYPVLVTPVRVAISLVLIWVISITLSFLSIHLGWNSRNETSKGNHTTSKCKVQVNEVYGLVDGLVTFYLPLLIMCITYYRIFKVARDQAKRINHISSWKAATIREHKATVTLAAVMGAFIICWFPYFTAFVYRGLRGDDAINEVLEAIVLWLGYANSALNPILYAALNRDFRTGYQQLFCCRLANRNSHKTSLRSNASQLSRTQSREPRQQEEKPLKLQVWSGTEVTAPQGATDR
# [2] = target: T3, Gastrin/cholecystokinin type B receptor (Homo sapiens, UniProt P32239)
# T3 sequence (P32239 whole entry): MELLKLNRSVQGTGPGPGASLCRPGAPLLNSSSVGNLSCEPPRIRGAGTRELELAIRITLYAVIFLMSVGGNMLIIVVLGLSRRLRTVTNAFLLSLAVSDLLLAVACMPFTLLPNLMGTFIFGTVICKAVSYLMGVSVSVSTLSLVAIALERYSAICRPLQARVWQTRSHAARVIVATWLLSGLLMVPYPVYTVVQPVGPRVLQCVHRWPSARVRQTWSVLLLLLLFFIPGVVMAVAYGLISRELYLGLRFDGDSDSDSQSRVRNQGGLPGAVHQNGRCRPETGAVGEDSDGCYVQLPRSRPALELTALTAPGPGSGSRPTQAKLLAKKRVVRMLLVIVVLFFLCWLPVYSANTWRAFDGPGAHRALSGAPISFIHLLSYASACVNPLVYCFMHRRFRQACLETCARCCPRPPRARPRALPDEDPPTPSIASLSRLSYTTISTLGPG
# [3] = target: T4, Alpha-1A adrenergic receptor (Homo sapiens, UniProt P35348); assay type: functional, cell-based
# T4 sequence (P35348 whole entry): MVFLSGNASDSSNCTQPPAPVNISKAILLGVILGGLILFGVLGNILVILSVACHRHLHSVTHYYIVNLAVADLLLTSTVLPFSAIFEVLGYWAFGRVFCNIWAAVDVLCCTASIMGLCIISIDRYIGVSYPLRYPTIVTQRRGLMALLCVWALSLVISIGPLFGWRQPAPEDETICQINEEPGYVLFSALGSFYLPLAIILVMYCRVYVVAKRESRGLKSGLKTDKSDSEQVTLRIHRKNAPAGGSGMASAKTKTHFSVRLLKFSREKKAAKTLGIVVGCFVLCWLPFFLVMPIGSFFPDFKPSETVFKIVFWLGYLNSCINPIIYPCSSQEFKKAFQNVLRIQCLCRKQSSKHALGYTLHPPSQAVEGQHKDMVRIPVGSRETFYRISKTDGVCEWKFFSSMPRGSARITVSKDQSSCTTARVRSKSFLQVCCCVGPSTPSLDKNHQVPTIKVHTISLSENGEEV
# [4] = target: T5, 5-hydroxytryptamine receptor 1A (Homo sapiens, UniProt P08908); assay type: functional, cell-based
# T5 sequence (P08908 whole entry): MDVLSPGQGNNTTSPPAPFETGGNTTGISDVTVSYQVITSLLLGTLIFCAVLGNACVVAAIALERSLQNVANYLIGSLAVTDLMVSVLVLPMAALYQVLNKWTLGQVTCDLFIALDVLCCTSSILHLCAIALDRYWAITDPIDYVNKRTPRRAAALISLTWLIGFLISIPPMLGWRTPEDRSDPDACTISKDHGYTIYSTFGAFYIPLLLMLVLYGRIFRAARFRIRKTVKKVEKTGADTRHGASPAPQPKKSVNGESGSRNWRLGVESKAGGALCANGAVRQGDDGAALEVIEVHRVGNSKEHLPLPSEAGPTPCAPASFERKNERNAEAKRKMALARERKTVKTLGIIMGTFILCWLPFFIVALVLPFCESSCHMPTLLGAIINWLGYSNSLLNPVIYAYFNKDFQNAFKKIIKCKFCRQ
# Note: assay procedure not described here.
Compound,AC50 [1] [µM],AC50 (Estrogen receptor) [µM],AC50 (Histamine H2 receptor) [µM],AC50 [2] [µM],AC50 [3] [µM],AC50 [4] [µM]
CCC[C@@H]1C[C@@H](C(=O)N[C@@H]([C@H]2O[C@H](SC)[C@H](O)[C@@H](O)[C@H]2O)[C@H](C)Cl)N(C)C1 [CLINDAMYCIN],–,> 30,> 10,> 30,> 30,> 10
CN(C)CCCN1c2ccccc2CCc2ccc(Cl)cc21 [CLOMIPRAMINE],–,–,> 30,–,> 30,–
CC(=O)OCC(=O)[C@@]1(O)CC[C@H]2[C@@H]3CCC4=CC(=O)CC[C@]4(C)[C@H]3C(=O)C[C@@]21C [CORTISONE ACETATE],–,–,> 30,–,> 30,> 30
NC(N)=Nc1nc(CSCCC(N)=NS(N)(=O)=O)cs1 [FAMOTIDINE],–,> 30,> 10,> 30,> 30,> 10
C[C@@H]1O[C@@H]1P(=O)(O)O [FOSFOMYCIN],> 10,–,> 10,–,–,> 10
NS(=O)(=O)c1cc2c(cc1Cl)NCNS2(=O)=O [HYDROCHLOROTHIAZIDE],–,> 30,> 10,> 30,–,> 10
CC(C)Cc1ccc(CC(=O)O)cc1 [IBUFENAC],> 30,–,–,–,> 30,> 30

# The next lines start with the values.
AC50 [1] [µM],AC50 (Estrogen receptor) [µM],AC50 (Histamine H2 receptor) [µM],AC50 [2] [µM],AC50 [3] [µM],AC50 [4] [µM],Compound
> 30,> 30,> 30,> 30,> 30,–,COC(=O)N[C@H](C(=O)N1CCC[C@H]1c1nc(-c2ccc(-c3ccc(-c4c[nH]c([C@@H]5CCCN5C(=O)[C@@H](NC(=O)OC)C(C)C)n4)cc3)cc2)c[nH]1)C(C)C
–,–,> 10,> 30,> 30,> 10,CCOC(=O)[C@H](CCc1ccccc1)N[C@@H](C)C(=O)N1CCC[C@H]1C(=O)O
> 30,–,–,–,> 30,0.007,CC(=O)c1ccc2c(c1)N(CCCN1CCN(CCO)CC1)c1ccccc1S2 [ACETOPHENAZINE]
> 10,> 30,> 10,> 30,–,> 10,COC(=O)N[C@H](C(=O)N[C@@H](Cc1ccccc1)[C@@H](O)CN(Cc1ccc(-c2ccccn2)cc1)NC(=O)[C@@H](NC(=O)OC)C(C)(C)C)C(C)(C)C [ATAZANAVIR]
–,–,–,–,> 30,> 30,CN1CCCC(n2nc(Cc3ccc(Cl)cc3)c3ccccc3c2=O)CC1 (configuration not stated) [AZELASTINE]
> 10,> 30,> 10,> 30,–,> 10,CC(C)NCC(O)COc1ccc(COCCOC(C)C)cc1 (configuration not stated) [BISOPROLOL]
> 30,> 30,> 30,> 30,> 30,–,N[C@@H](C(=O)N[C@@H]1C(=O)N2C(C(=O)O)=C(Cl)CS[C@H]12)c1ccccc1 [CEFACLOR ANHYDROUS]
–,> 10,> 30,–,–,> 10,O=C(O)c1cc(-c2ccc(F)cc2F)ccc1O [DIFLUNISAL]
> 30,> 30,> 30,> 10,> 30,–,COc1ccc2c(c1)C(=O)N(CCc1ccc(S(=O)(=O)NC(=O)NC3CCCCC3)cc1)C(=O)C2(C)C [GLIQUIDONE]
